Test results from US20190083521A1, “COMBINATION THERAPY FOR TREATING CANCER” (Epizyme, Inc., priority 2014, published 2019).
Structures can show the parent of a compound that is named as a salt. Where two headings read alike, the source gives them in different places.

Legend:
SKM-1 cells = assay: Example 6 combination screen: 300 nM EPZ-5676 pre-treatment, second compound 72 h, ATPLite, IC50 shift; assay type: cell-based, human
Method: Cells were then equilibrated in incubators for 24 hours before treatment with a second compound. Treated assay plates were incubated with a second compound for 72 hours. After this time, plates were developed for endpoint analysis using ATPLite to measure ATP content, which is used as an indicator of cell viability.
“N/D” means that IC50 of the second compound could not be determined for both conditions.

MOLM-13 (MLL-AF9) cells = assay: Combination proliferation assay with Compound A2 (CellTiter-Glo, Chou-Talalay CI); assay type: cell-based, human; details: 7 Day Cotreatment Model; for Combination effect with Compound A2 (Table 4): MOLM-13 (MLL-AF9); for Combination effect with Compound A2 (Table 5): MOLM13
Method: The acute myelogenous leukemia cell lines MV4-11 (MLL-AF4) and MOLM-13 (MLL-AF9) were obtained from American Type Culture Collection (ATCC; Rockville, Md.) and Deutsche Sammlung von Mikroorganismen and Zellkulturen (DSMZ; Braunschweig, Germany) respectively.
(§1) Studies were performed using MLL-rearranged cell lines in vitro to evaluate the anti-proliferative effect of a combination of two agents together on cell growth. Initial proliferation studies were performed to determine the IC50 of a given compound in each cell line. The cell counts were measured by ATP quantitation using the Promega Cell Titer Glo kit and luminescence values corresponded to the amount of ATP in a given well.
Compounds were evaluated for synergy in the co-treatment phase by testing the compounds in a concentration range which was bracketed around their IC50 values. The compounds were plated to a 96 well plate in a matrix format (FIG. 3) which includes increasing concentrations of each drug in the combination in a constant ratio, in addition to the effect of each compound alone in the study. Cells were seeded and grown in the log-linear phase for 3 or 7 days in the co-treatment phase. Minimum inhibition (DMSO alone) controls were used in each plate to calculate fraction affected (Fa) of a test well. DMSO concentration was kept at 0.1% v/v.
The drug combination analysis was performed utilizing the Chou-Talalay method Synergy was determined using the software package Calcusyn by Biosoft. The combination index (CI) is a quantitative term used to describe the level of synergy or antagonism in a given test system. A combination index less than one indicates synergy, and a CI greater than one indicates antagonism. Further, strong synergism is achieved when the CI value falls below 0.3.
The HP-D300 digital dispenser (Tecan) was used to dispense compounds in a combinatorial matrix. […] Cell viability was measured via ATP content using CellTiter-Glo® (Promega).
Viability was determined using CellTiter-Glo® (Promega).
Cell viability was measured via ATP content using CellTiter-Glo® (Promega).
as §1, with “Proliferation studies” for “Studies”, “MOLM-13, MV4-11 and SKM-1” for “MLL-rearranged”, “cancer cell killing” for “anti-proliferative”, “IC50 values” for “IC50”, “correspond” for “corresponded”
These studies were performed to evaluate both the combinatorial effect of compounds on cell killing and the durability of the effect by washing out one of the agents.
Compounds evaluated for synergy in the co-treatment phase were tested in a range which was bracketed around the IC50's. The compounds were plated to a 96 well plate in a matrix format which includes increasing concentrations of each drug in the combination in a constant ratio, in addition to the effect of each compound alone in the study. Cells were seeded and grown in the log-linear phase for 3 or 7 days in the cotreatment phase. Maximum and minimum inhibition (DMSO alone) controls were used in each plate to calculate fraction affected (Fa) of a test well. DMSO concentration was kept at 0.1% v/v. The drug combination analysis was performed utilizing the Chou-Talalay method. Synergy was determined using the software package Calcusyn by Biosoft. The combination index (CI) is the term used to describe the level of synergy or antagonism in a given test system. A combination index less than one indicates synergy, and a CI greater than one indicates antagonism.
The drug combination analysis was performed using the Chou-Talalay method. Graphs representing values of combination index (CI) versus Fractional effect (Fa) known as Fa-CI plots were generated and synergy was evaluated.

[1] = SKM-1 cells, 300 nM EPZ-5676 pre-treatment (4 + 3 days) vs DMSO, then 2nd compound 72 h, ATPLite, IC50 shift of 2nd compound

Compound | Summary of Combination Studies: SKM-1 (SKM-1 cells; [1]) | also measured
N#Cc1c(C2CCNCC2)cc(-c2c(O)cccc2OCC2CC2)nc1N [IKK-2 Inhibitor VIII] | Synergy (considered synergistic if the IC50 value of the second compound decreased by 2-fold or more when EPZ-5676 was added as compared to the DMSO control) | –
Cc1sc2c(c1C)C(c1ccc(Cl)cc1)=N[C@@H](CC(=O)Nc1ccc(O)cc1)c1nnc(C)n1-2 [OTX015] | Synergy (considered synergistic if the IC50 value of the second compound decreased by 2-fold or more when EPZ-5676 was added as compared to the DMSO control) | –
O=C(CCCCCCC(=O)Nc1ccccc1)NO [Vorinostat] | – | Combination effect with Compound A2 (Table 4) (MOLM-13 (MLL-AF9) cells): Additive/Synergy
CC(C)C[C@H](NC(=O)[C@H](Cc1ccccc1)NC(=O)c1cnccn1)B(O)O [Velcade, bortezomib] | – | Combination effect with Compound A2 (Table 4) (MOLM-13 (MLL-AF9) cells): Combination Benefit
COc1ccc(-c2ccc3c(N4CCOC[C@@H]4C)nc(N4CCOC[C@@H]4C)nc3n2)cc1CO [AZD 8055] | Synergy (considered synergistic if the IC50 value of the second compound decreased by 2-fold or more when EPZ-5676 was added as compared to the DMSO control) | –
O=C(Nc1ccncc1)c1cc([N+](=O)[O-])ccc1Cl [Compound T0070907] | – | Combination effect with Compound A2 (Table 5) (MOLM-13 (MLL-AF9) cells): Additive (additive effect by CI equal to 1)
Arsenic Trioxide | – | Summary of Combination Studies: SKM-1 (SKM-1 cells): 2.0
CC(C)C[C@H](NC(=O)CNC(=O)c1cc(Cl)ccc1Cl)B(O)O [MLN2238] | Synergy (considered synergistic if the IC50 value of the second compound decreased by 2-fold or more when EPZ-5676 was added as compared to the DMSO control) | –
COc1ccc(Cc2nccc3cc(OC)c(OC)cc23)cc1OC [Papaverine Hydrochloride] | Synergy (considered synergistic if the IC50 value of the second compound decreased by 2-fold or more when EPZ-5676 was added as compared to the DMSO control) | –
CC1=C(/C=C/C(C)=C/C=C/C(C)=C/C(=O)O)C(C)(C)CCC1 [Tretinoin] | Synergy (considered synergistic if the IC50 value of the second compound decreased by 2-fold or more when EPZ-5676 was added as compared to the DMSO control) | –
CS(=O)(=O)N1CCN(Cc2cc3nc(-c4cccc5[nH]ncc45)nc(N4CCOCC4)c3s2)CC1 [GDC-0941] | Synergy (considered synergistic if the IC50 value of the second compound decreased by 2-fold or more when EPZ-5676 was added as compared to the DMSO control) | –
CN(C)C(=O)c1cc2cnc(Nc3ccc(N4CCNCC4)cn3)nc2n1C1CCCC1 [LEE011] | Synergy (considered synergistic if the IC50 value of the second compound decreased by 2-fold or more when EPZ-5676 was added as compared to the DMSO control) | –
CC(C)CC(=O)Nc1[nH]nc2c1CN(C(=O)C1CCN(C)CC1)C2(C)C [PHA-793887] | Synergy (considered synergistic if the IC50 value of the second compound decreased by 2-fold or more when EPZ-5676 was added as compared to the DMSO control) | –
C[C@@H]1COCCN1c1cc(C2(S(C)(=O)=O)CC2)nc(-c2cccc3[nH]ccc23)n1 [AZ20] | – | Combination effect with Compound A2 (Table 5) (MOLM-13 (MLL-AF9) cells): Synergy (Drug synergy was statistically defined by CI values less than 1)
Nc1cccc2c1CN(C1CCC(=O)NC1=O)C2=O (stereo not drawn) [Lenalidomide] | – | Combination effect with Compound A2 (Table 4) (MOLM-13 (MLL-AF9) cells): Combination Benefit
S=c1nc[nH]c2nc[nH]c12 [Mercaptopurine] | – | Combination effect with Compound A2 (Table 4) (MOLM-13 (MLL-AF9) cells): Additive--> Synergy
CC1(C)CCC(CN2CCN(c3ccc(C(=O)NS(=O)(=O)c4ccc(NCC5CCOCC5)c([N+](=O)[O-])c4)c(Oc4cnc5[nH]ccc5c4)c3)CC2)=C(c2ccc(Cl)cc2)C1 [ABT-199] | – | Combination effect with Compound A2 (Table 4) (MOLM-13 (MLL-AF9) cells): Additive--> Synergy
Cn1c(=O)n(-c2ccc(C(C)(C)C#N)cc2)c2c3cc(-c4cnc5ccccc5c4)ccc3ncc21 [BEZ235] | – | Combination effect with Compound A2 (Table 5) (MOLM-13 (MLL-AF9) cells): Additive (additive effect by CI equal to 1)
